Target: 5-hydroxytryptamine receptor 7 (Rattus norvegicus, UniProt P32305)
Sequence (P32305 whole entry): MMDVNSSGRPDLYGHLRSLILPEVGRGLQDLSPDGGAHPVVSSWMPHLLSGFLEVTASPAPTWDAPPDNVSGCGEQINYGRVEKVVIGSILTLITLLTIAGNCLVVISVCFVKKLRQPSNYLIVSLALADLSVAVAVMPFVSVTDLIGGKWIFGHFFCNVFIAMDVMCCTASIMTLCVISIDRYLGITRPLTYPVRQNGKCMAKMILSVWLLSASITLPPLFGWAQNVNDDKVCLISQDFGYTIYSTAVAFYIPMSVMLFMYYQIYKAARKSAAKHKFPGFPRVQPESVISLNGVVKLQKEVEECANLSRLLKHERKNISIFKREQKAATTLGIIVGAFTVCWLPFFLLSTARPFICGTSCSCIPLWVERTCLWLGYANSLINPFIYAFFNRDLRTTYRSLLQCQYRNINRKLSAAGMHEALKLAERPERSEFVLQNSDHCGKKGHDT

| Compound | Ki [nM] |
| --- | --- |
| CC(COc1ccccc1)N(CCCl)Cc1ccccc1 (stereo unspecified) | 0.9 |
| c1cc2c(c(NC3=NCCN3)c1)CCCC2 | 290 |
| CNCC(O)c1ccc(O)c(O)c1 (stereo unspecified) [EPINEPHRINE] | 600 |
| O=C(NC1CCN(CCc2c[nH]c3ccccc23)CC1)c1ccccc1 [N-{1-[2-(1H-Indol-3-yl)-ethyl]-piperidin-4-yl}-benzamide(indoramin)] | 5 |
| COc1cccc(OC)c1OCCNCC1Oc2ccccc2OC1c1ccccc1 (stereo unspecified) [NSC_185453] | 1 |
| c1ccc2c(CC3=NCCN3)cccc2c1 [Naphazoline] | 43 |
| CNC[C@H](O)c1cccc(O)c1 [PHENYLEPHRINE] | 1400 |
| c1ccc2c(c1)OCC(CN1CCCCC1)O2 (stereo unspecified) [Piperoxan] | 360 |
| Cc1cc(C(C)(C)C)c(O)c(C)c1CC1=NCCN1 [SMR000059324] | 23 |
| c1ccc(CC2=NCCN2)cc1 [Tolazoline] | 2000 |
| COc1cc2nc(N3CCN(C(=O)c4ccco4)CC3)nc(N)c2cc1OC [[3H]-Minipress] | 0.1 |

From BindingDB's records for doi:10.1016/0014-2999(79)90202-4 (1979)
